These are literature values, as cited in publication PMC3010531 (Journal of the American Chemical Society, 2010).

SMILES strings stand for the structures.

The target in one data set is mH2A1.1 (G224E) (Homo sapiens, UniProt O75367, G224E). To be noted: point-mutant; ref 13c.
The target in the next data set is mH2A1.1 (Homo sapiens, UniProt O75367). Conditions: ref 13c.
Another data set concerns the target mH2A1.2 (Homo sapiens, UniProt O75367). To be noted: splice-variant; ref 13c.

Chain of mH2A1.1 (G224E) (O75367 whole entry G224E, species assumed): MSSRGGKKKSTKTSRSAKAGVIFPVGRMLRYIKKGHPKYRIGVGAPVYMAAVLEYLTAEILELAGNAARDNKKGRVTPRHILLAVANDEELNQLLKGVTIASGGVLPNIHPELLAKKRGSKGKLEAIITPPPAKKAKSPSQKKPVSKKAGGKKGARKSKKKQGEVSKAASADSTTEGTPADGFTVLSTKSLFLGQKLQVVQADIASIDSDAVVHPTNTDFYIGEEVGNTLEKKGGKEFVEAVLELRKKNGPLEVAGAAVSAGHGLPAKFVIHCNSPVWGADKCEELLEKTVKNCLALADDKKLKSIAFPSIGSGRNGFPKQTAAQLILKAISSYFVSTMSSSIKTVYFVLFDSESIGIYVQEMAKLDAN
Chain of mH2A1.2 (O75367 162-372 isoform O75367-1): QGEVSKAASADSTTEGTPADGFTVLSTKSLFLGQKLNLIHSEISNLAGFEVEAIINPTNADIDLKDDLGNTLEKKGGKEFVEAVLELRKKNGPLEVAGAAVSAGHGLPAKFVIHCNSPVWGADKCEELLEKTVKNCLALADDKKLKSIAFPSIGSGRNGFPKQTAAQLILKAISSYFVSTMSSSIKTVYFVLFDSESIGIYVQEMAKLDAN
Chain of mH2A1.1 (O75367 184-367 limits assumed, species assumed): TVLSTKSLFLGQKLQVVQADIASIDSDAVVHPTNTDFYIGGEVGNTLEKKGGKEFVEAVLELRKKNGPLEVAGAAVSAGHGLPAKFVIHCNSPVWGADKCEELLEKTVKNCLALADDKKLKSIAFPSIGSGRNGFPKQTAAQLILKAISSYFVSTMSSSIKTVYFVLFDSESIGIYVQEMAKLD

For `Nc1ncnc2c1ncn2[C@@H]1O[C@H](COP(=O)(O)OP(=O)(O)OC[C@H]2OC(O)[C@H](O)[C@@H]2O)[C@@H](O)[C@H]1O` (stereo partly drawn) [ADPR, ADP-ribose], the “binding of ADPR by mH2A1.1 (G224E)” value on mH2A1.1 (G224E) is recorded as “abolishes ADPR binding”. Also, the “affinity of free ADPR for mH2A1.1” value at mH2A1.1 is “modest, in the μM range”. For the same compound, the “binding of ADPR by mH2A1.2” value on mH2A1.2 is listed as “does not bind ADPR”.
